Data set [1] in a line: Intrinsic clearance in human microsomes. Format: ADME, Microsome.
For data set [2], the system named is Hepatocyte. The data set is described as follows: Intrinsic clearance in rat hepatocytes. Format: ADME, cell-based.
In a further data set the target is Estrogen receptor beta (Homo sapiens, UniProt Q92731). The experiment in a line: Binding affinity to ER-beta (unknown origin).
In data set [3] the target is Voltage-gated inwardly rectifying potassium channel KCNH2 (Homo sapiens, UniProt Q12809). The data set is described as follows: Inhibition of human ERG channel.
Data set [4] can be described thus: Intrinsic clearance in rat microsomes. Format: ADME, Microsome.
The target of a further data set is Cytochrome P450 2C19 (Homo sapiens, UniProt P33261). The data set is described as follows: Inhibition of CYP2C19 (unknown origin). Type of data set: ADME.
The nature of data set [5]: Lipophilicity, log D of the compound at pH 7.4. To be noted: buffer. Type of data set: physicochemical.
Another data set concerns the target T1, Glucocorticoid receptor (Homo sapiens, UniProt P04150).
T1 sequence (P04150 whole entry): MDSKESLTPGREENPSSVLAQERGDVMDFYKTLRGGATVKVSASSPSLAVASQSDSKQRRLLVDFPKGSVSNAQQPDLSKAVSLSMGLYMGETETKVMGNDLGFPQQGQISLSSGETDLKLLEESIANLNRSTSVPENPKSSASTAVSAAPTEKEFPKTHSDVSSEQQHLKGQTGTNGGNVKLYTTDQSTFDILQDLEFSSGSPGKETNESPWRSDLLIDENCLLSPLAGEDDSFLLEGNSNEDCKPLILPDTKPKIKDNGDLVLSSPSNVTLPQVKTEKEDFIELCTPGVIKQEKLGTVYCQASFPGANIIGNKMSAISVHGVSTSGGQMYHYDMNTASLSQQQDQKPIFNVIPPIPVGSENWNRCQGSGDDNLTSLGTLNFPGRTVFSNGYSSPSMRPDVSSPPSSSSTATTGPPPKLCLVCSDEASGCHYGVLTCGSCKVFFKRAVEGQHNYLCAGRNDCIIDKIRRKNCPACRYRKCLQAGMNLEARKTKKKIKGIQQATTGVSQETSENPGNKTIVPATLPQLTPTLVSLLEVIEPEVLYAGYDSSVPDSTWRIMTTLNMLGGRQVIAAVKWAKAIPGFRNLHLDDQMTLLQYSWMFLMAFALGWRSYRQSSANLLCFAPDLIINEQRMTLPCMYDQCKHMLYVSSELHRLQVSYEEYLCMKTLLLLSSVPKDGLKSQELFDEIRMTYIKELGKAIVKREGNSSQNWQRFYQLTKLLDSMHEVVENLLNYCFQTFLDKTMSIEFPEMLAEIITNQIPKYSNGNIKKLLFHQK

The next data set deals with T2, Progesterone receptor (Homo sapiens, UniProt P06401).
T2 sequence (P06401 whole entry): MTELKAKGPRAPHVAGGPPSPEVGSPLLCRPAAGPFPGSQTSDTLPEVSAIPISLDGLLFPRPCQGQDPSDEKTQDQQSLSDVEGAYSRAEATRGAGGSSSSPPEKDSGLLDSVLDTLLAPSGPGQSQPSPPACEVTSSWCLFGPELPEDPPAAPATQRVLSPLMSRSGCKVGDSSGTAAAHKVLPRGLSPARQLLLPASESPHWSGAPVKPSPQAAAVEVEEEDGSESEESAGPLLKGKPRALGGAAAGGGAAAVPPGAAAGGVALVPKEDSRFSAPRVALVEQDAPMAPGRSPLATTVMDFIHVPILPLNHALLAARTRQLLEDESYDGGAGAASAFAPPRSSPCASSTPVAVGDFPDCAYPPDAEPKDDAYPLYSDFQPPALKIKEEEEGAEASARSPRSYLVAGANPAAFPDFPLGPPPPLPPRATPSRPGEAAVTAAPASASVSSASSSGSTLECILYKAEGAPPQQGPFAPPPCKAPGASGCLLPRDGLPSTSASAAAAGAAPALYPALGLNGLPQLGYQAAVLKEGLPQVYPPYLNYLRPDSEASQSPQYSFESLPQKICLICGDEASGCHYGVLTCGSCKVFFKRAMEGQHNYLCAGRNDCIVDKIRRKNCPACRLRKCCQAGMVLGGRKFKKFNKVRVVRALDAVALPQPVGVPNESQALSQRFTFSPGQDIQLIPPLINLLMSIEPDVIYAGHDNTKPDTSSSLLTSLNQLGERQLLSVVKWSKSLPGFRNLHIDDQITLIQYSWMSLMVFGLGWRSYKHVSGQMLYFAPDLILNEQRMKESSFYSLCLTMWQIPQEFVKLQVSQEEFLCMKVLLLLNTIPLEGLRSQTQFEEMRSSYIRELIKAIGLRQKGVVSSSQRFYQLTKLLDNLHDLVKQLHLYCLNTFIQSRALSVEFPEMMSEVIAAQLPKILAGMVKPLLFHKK
The data set is described as follows: Binding affinity to progesterone receptor (unknown origin).

Data set [6] can be described thus: Thermodynamic solubility of the crystalline compound in 0.1 M phosphate buffer at pH 7.4 at 25 degC after 24 hrs. Format: physicochemical. To be noted: read-out: Therm_solubility.
A further data set deals with Cytochrome P450 2C9 (Homo sapiens, UniProt P11712). The data set is described as follows: Inhibition of CYP2C9 (unknown origin). Format: ADME.
The subject of data set [7] is Hepatocyte. The data set is described as follows: Intrinsic clearance in human hepatocytes. Type of data set: ADME, cell-based.

For orientation: microsomal CLint means the rate of metabolic loss divided by the concentration. Read a low microsomal CLint as greater metabolic stability. For orientation: IC50 means the concentration at which inhibition is half-maximal. One may read the logD as the decadic logarithm of the distribution of all forms, ionised or not, between an organic phase and buffer at a given pH. A higher logD goes with a more lipophilic compound.

The structures appear in SMILES notation. Converted amounts (≈) assume the structure as drawn. Where only a bound is given, the exact number is not on record here.

Chain of Estrogen receptor beta (Q92731 whole entry): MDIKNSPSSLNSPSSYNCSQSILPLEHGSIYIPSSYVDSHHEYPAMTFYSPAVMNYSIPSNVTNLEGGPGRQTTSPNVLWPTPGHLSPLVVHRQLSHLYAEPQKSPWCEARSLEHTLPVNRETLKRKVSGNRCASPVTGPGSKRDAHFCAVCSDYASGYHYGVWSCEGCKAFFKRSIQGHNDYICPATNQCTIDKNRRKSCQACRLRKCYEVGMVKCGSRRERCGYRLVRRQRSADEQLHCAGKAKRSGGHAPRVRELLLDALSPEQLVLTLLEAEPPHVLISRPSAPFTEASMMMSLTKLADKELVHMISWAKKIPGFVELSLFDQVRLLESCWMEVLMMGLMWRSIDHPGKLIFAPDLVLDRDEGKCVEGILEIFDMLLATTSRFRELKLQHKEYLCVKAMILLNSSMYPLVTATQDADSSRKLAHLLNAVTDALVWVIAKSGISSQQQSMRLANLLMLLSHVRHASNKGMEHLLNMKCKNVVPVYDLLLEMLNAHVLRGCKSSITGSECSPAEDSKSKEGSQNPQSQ
Chain of Cytochrome P450 2C19 (P33261 whole entry): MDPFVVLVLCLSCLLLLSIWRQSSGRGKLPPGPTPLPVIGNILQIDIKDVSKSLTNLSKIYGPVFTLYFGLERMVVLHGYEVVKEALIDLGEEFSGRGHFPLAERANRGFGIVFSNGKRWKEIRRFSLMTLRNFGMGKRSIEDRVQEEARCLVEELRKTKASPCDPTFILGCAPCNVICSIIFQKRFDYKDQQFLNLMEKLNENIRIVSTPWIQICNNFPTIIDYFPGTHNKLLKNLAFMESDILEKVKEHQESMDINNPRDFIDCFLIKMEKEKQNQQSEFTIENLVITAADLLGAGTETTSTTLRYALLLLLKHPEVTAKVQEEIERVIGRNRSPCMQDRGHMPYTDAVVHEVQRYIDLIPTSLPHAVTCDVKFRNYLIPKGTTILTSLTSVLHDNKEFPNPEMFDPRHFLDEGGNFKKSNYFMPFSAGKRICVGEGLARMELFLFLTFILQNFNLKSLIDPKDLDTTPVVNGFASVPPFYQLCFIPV
Chain of Voltage-gated inwardly rectifying potassium channel KCNH2 (Q12809 whole entry): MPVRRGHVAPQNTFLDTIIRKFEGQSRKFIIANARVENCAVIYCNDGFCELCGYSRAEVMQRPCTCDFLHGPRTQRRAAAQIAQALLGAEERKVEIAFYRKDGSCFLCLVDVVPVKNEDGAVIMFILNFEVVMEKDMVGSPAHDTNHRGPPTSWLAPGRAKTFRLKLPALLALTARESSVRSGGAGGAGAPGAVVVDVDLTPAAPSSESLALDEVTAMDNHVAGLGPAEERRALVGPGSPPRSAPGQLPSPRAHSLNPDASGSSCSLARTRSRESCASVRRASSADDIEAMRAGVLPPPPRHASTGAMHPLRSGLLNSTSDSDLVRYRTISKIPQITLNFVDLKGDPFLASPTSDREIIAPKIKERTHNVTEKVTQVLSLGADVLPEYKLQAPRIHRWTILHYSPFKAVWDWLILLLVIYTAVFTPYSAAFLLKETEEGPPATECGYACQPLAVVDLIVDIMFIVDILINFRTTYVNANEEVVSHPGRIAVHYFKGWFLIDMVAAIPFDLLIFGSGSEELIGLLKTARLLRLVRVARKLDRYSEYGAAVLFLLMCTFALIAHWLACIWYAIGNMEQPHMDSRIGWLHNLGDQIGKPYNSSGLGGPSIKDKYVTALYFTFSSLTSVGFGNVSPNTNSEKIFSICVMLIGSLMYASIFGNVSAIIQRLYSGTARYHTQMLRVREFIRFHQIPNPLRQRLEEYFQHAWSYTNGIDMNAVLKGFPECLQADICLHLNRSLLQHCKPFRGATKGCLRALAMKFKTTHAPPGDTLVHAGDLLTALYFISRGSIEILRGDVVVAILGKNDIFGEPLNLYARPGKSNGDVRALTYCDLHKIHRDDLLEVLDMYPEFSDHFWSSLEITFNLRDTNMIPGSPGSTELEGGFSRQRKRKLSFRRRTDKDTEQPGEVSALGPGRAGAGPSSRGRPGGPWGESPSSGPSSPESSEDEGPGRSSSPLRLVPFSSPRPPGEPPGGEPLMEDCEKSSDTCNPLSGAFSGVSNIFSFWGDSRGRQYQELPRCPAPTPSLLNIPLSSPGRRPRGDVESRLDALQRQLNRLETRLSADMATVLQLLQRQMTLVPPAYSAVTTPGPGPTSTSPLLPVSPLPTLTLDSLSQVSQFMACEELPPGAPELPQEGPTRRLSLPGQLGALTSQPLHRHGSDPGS
Chain of Cytochrome P450 2C9 (P11712 whole entry): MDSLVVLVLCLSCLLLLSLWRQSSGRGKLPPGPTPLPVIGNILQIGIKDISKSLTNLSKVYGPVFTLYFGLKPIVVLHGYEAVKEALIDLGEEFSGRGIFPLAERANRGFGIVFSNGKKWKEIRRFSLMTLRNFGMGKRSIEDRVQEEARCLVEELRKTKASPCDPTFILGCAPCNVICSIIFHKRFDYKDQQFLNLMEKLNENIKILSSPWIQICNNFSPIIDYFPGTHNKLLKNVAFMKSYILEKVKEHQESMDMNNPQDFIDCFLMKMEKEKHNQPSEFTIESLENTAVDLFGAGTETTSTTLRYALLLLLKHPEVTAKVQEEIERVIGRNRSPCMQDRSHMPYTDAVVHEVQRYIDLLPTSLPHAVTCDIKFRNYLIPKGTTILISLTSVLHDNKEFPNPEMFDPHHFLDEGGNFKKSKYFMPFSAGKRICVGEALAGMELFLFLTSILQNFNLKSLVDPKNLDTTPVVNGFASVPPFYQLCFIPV
Description for Glucocorticoid receptor: Agonist activity at glucocorticoid receptor in human PBMC assessed as inhibition of LPS-stimulated TNF-alpha release

As to `Cc1nn(C2CCCC2)c(C)c1S(=O)(=O)N[C@@H](C)CNc1cccc2c1cnn2-c1ccc(F)nc1`, the microsomal CLint in data set [1] and in data set [4] was more than 200 µL/min/mg in each case. The CLH amounted to 33 µL/min in the data set on Hepatocyte [2] and 47 µL/min in the data set on Hepatocyte [7]. In addition, the IC50 on Estrogen receptor beta is more than 5 µM; in data set [3] it was 8.7 µM; on Cytochrome P450 2C19, more than 20 µM; at Glucocorticoid receptor, 0.014 µM; on Progesterone receptor it was 4.5 µM; on Cytochrome P450 2C9, 17 µM. Further, the logD in data set [5] stood at 3.7. For the same compound, in data set [6], the solubility thermodynamic at 24 h was determined as 1.5 µM (≈ 0.767 µg/mL).

Values taken from ChEMBL document CHEMBL3259563, “The discovery of potent and selective non-steroidal glucocorticoid receptor modulators, suitable for inhalation” (Bioorg Med Chem Lett, 2014).
